# In article PMC13071375, “Restriction endonuclease selective inhibition by β-cyclodextrin sulfate” (Bioscience Reports, 2025):
# “And” between values parts separate entries of the source, which are not always exact repeats. Equal values may be shown once. Where a name gives a salt, the structure may show the parent alone. Read-outs that look alike come from different tables or passages of the source.
# What was measured:
# KpnI = system: KpnI; design: method as in PMID 25581012; conditions: cited from earlier work
# SacI = system: SacI; design: method as in PMID 25581012; conditions: cited from earlier work
# XapI = system: XapI; design: method as in PMID 25581012; conditions: cited from earlier work
# EcoRI = target: T1, EcoRI (Escherichia coli, UniProt P00642); format: biochemical
# T1 construct: purchased Thermo Fisher Scientific ER0271
# T1 sequence (P00642 2-277): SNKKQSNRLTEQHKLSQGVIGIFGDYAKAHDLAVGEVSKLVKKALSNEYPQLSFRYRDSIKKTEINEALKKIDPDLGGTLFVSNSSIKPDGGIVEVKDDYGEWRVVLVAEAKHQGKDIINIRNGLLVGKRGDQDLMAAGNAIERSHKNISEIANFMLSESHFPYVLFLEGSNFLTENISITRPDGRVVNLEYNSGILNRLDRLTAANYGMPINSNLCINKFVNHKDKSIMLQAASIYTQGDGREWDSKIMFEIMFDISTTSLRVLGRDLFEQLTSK
# Experimental: (§2) Digestion time course studies were conducted for each RE by incubating 2 μl of NdeI-linearised pBR322 (2.5 ng/μl), 1 μl of RE (1.25 U/μl), 2 μl of appropriate buffer, and 15 μl of molecular biology grade water at 37°C for various times (Supplementary Figure S1). […] These times were used as the digestion time for the RE inhibition assays.
# (§3) To determine the effects of β-CDsul treatment on REs, Nl-pBR322 was incubated at 37°C with EcoRI, VspI, or HindIII for the previously determined amount of time.
# (§4) β-CDsul and EDTA stock solutions were made in molecular biology grade water, and dilution series were prepared at appropriate concentrations to give the necessary final concentrations of each in the assay mixture. The assay mixture composition was 2 μl of Nl-pBR322 (2.5 ng/μl), 1 μl of RE (1.25 U/μl), 2 μl of appropriate buffer, 1 μl of β-CDsul or EDTA at desired concentration, and 14 μl of molecular biology grade water. As a negative control, 1 μl extra of microbiology grade water was used instead of EDTA or β-CDsul. After the appropriate amount of incubation time at 37°C, the REs were thermally inactivated by incubation at 65°C for 20 min.
# Electrophoresis gel solution was prepared using 0.8% (w/v) agarose (Thermo Scientific™ Agarose I (Molecular Biology Grade)) with 1× TBE Buffer (Thermo Scientific™ TBE Buffer (Tris–borate–EDTA) (10×)). The mixture was heated until the agarose was completely dissolved and the solution became clear. Sybr Safe DNA stain (1% (v/v), Invitrogen™ SYBR™ Safe DNA Gel Stain) was added into the agarose solution. The final solution was poured into the gel tray and cooled down to room temperature (25°C). Ten microliters of samples from digestion experiments was mixed well with 1 μl of 500× diluted SYBR Safe Gel Stain (ThermoFisher Scientific™ Invitrogen, catalogue number S33102) and 1 μl of 5× diluted FlashGel Loading Dye (Lonza Bioscience, catalogue number 50462) and then loaded into wells. A FlashGel™ Dock system was used for electrophoresis with a voltage of 0–300 VDC, power of 15 W, and current of 50 mA.
# (§5) Gel images were captured using a UV-transilluminator capturing system (Syngene™ Ingenius 3 Manual Gel Documentation System) with the following parameters: resolution: 3.0 MP, bit depth: 12/16 bit, and wavelength: 302 nm. The images were analysed using GelAnalyzer [19] software by calculating the normalised intensities of fragment bands.
# VspI = format: biochemical; conditions: for IC50: Nl-pBR322 substrate, 20 min digestion at 37°C, Buffer O
# Experimental: as §2, §3, §4
# (§6) Electrophoresis gel solution was prepared using 0.8% (w/v) agarose (Thermo Scientific™ Agarose I (Molecular Biology Grade)) with 1× TBE Buffer (Thermo Scientific™ TBE Buffer (Tris–borate–EDTA) (10×)). The mixture was heated until the agarose was completely dissolved and the solution became clear. Sybr Safe DNA stain (1% (v/v), Invitrogen™ SYBR™ Safe DNA Gel Stain) was added into the agarose solution. The final solution was poured into the gel tray and cooled down to room temperature (25°C). […]
# as §5
# HindIII [1] = target: T2, HindIII (Haemophilus influenzae, UniProt P43870); assay: biochemical; conditions: Nl-pBR322 substrate, 40 min digestion at 37°C, Buffer R
# T2 sequence (P43870 whole entry): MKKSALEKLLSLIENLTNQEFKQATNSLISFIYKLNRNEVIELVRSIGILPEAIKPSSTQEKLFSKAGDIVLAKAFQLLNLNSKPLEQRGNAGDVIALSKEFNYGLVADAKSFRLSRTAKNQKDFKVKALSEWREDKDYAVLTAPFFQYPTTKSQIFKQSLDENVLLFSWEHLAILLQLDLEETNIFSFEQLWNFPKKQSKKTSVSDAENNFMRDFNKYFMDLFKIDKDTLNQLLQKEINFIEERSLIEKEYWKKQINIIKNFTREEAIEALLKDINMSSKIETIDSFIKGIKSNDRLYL
# Experimental: as §2, §3, §4, §6, §5
# REs = system: REs; design: method as in PMID 25126898; conditions: cited from earlier work
# EcoRI and VspI [2] = assay: Co-digestion assay of Nl-pBR322 with EcoRI and VspI (dual RE system); format: biochemical
# Experimental: (§1) The digestion time was either variable or fixed at 120 min for the variable concentration experiment to achieve full digestion. The composition of the components with the co-digestion assays was more complex than single digestion systems due to the need for simultaneously optimising the activity of each RE in the non-ideal buffer system of the other RE.
# EcoRI and VspI [3] = system: T3, EcoRI and VspI; assay: as above; format: biochemical
# T3 construct: purchased Thermo Fisher Scientific ER0271, ER0911
# Experimental: as §1
# HindIII [4] = target: T2, HindIII; conditions: read-out: IC50 HindIII; Nl-pBR322 substrate, 40 min digestion at 37°C, Buffer R
# Experimental: as §2, §3, §4, §6, §5
# Nrul = system: Nrul; design: method as in PMID 25126898; conditions: digestion of λ DNA; cited from earlier work
# HindIII [5] = target: T2, HindIII; design: purchased Thermo Fisher Scientific ER0501; method as in PMID 25126898; conditions: digestion of λ DNA; cited from earlier work
# [6] = Nl-pBR322 substrate, 20 min digestion at 37°C, Buffer EcoRI, read-out: IC50 EcoRI
# [7] = 10 μM β-CDsul, time course 30–240 min
smiles,measurement,setting,value
O=C1N2CN3C(=O)N4CN5C(=O)N6CN7C(=O)N8CN9C(=O)N%10CN%11C(=O)N%12CN%13C(=O)N%14CN1C1C2N2CN%15C(=O)N(CN%16C(=O)N(CN%17C(=O)N(CN%18C(=O)N(CN%19C(=O)N(CN%20C(=O)N(CN1C2=O)C%14C%13%20)C%12C%11%19)C%10C9%18)C8C7%17)C6C5%16)C4C3%15 (stereo not drawn) [CB7],IC50,KpnI; linearised pGL3-Basic DNA,~200 µM
same,IC50,KpnI; plasmid pGL3-Basic DNA,~90 µM
same,IC50,SacI; linearised pGL3-Basic DNA,~350 µM
same,IC50,SacI; plasmid pGL3-Basic DNA,~250 µM
same,IC50,XapI; linearised pGL3-Basic DNA,~500 µM
same,IC50,XapI; plasmid pGL3-Basic DNA,~500 µM
O=C(O)CN(CCN(CC(=O)O)CC(=O)O)CC(=O)O [EDTA],IC50,EcoRI; [6],18 µM and 17 µM
same,IC50,"EcoRI; all three enzymes, Nl-pBR322, read-out: range of IC50 values across EcoRI, HindIII and VspI",12 to 17 µM
same,IC50,VspI,12 µM
same,IC50,HindIII [1],13 µM and 12 µM
OC[C@H]1O[C@@H]2O[C@H]3[C@H](O)[C@@H](O)[C@@H](O[C@H]4[C@H](O)[C@@H](O)[C@@H](O[C@H]5[C@H](O)[C@@H](O)[C@@H](O[C@H]6[C@H](O)[C@@H](O)[C@@H](O[C@H]7[C@H](O)[C@@H](O)[C@@H](O[C@H]8[C@H](O)[C@@H](O)[C@@H](O[C@H]1[C@H](O)[C@H]2O)O[C@@H]8CO)O[C@@H]7CO)O[C@@H]6CO)O[C@@H]5CO)O[C@@H]4CO)O[C@@H]3CO [β-CD],inhibition of REs,REs,no inhibition was observed
"O=S(=O)(O)OCC1OC2OC3C(COS(=O)(=O)O)OC(OC4C(COS(=O)(=O)O)OC(OC5C(COS(=O)(=O)O)OC(OC6C(COS(=O)(=O)O)OC(OC7C(COS(=O)(=O)O)OC(OC8C(COS(=O)(=O)O)OC(OC1C(OS(=O)(=O)O)C2OS(=O)(=O)O)C(OS(=O)(=O)O)C8OS(=O)(=O)O)C(OS(=O)(=O)O)C7OS(=O)(=O)O)C(OS(=O)(=O)O)C6OS(=O)(=O)O)C(OS(=O)(=O)O)C5OS(=O)(=O)O)C(OS(=O)(=O)O)C4OS(=O)(=O)O)C(OS(=O)(=O)O)C3OS(=O)(=O)O (stereo not drawn) [β-CDsul, β-cyclodextrin sulfate]","fold difference in IC50 values, EcoRI vs HindIII or VspI",EcoRI; EcoRI vs HindIII or VspI,13- to 27 fold
same,IC50,EcoRI; [6],5 µM
same,fold more potent at inhibiting EcoRI compared with HindIII,"EcoRI; ratio of IC50s, EcoRI vs HindIII",13 fold
same,fold more potent at inhibiting EcoRI compared with VspI,"EcoRI; ratio of IC50s, EcoRI vs VspI",about 27 fold
same,IC50,VspI,133 µM
same,fold difference in IC50 against VspI and HindIII,VspI; VspI vs HindIII,two-fold
same,time of maximum concentration of fragment A in EcoRI/VspI co-digestion,EcoRI and VspI [2]; [7],60 min
same,digestion in EcoRI/VspI co-digestion,"EcoRI and VspI [2]; Five hundred micromolar β-CDsul, 120 min",no digestion by either RE
same,decrease of fragment A concentration (EcoRI action) in EcoRI/VspI co-digestion,EcoRI and VspI [3]; [7],does not decrease until 240 min
same,EcoRI inhibition in EcoRI/VspI co-digestion (fragment A concentration),"EcoRI and VspI [3]; between 5 and 10 μM β-CDsul, 120 min, still no Nl-pBR322, VspI less affected",significant increase in EcoRI inhibition
same,IC50,HindIII [4],65 µM
same,IC50,Nrul,3 µM
same,IC50,HindIII [5],6 µM
